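1) Cells in 96-well plates. 2) Compound, 48 h, 5 concentrations. 3) Linear interpolation between surrounding doses. 4) Unreached endpoint = highest concentration. GI50: concentration for 50% inhibition of growth.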 Active and inactive are the calls of the source. Cut-off read from the data, not from the text of the source: active = GI50 up to about 1.1 µM and inactive = higher.
Columns and labels:
Assay in all cases: inhibition of tumour cell growth, NCI panel, 48 h
786-0 = tested on: 786-0
A498 = tested on: A498
A549 = tested on: A549
ACHN = tested on: ACHN
CAKI-1 = tested on: CAKI-1
CCRF-CEM = tested on: CCRF-CEM
COLO 205 = tested on: COLO 205
DU-145 = tested on: DU-145
EKVX = tested on: EKVX
HCC 2998 = tested on: HCC 2998
HCT-116 = tested on: HCT-116
HCT-15 = tested on: HCT-15
HL-60 = tested on: HL-60
HOP-62 = tested on: HOP-62
HOP-92 = tested on: HOP-92
HT-29 = tested on: HT-29
IGROV-1 = tested on: IGROV-1
K562 = tested on: K562
KM12 = tested on: KM12
LOX IMVI = tested on: LOX IMVI
M14 = tested on: M14
MCF7 = tested on: MCF7
MDA-MB-231 = tested on: MDA-MB-231
MDA-MB-435 = tested on: MDA-MB-435
MDA-N = tested on: MDA-N
MOLT-4 = tested on: MOLT-4
Malme-3M = tested on: Malme-3M
NCI-H226 = tested on: NCI-H226
NCI-H23 = tested on: NCI-H23
NCI-H460 = tested on: NCI-H460
NCI-H522 = tested on: NCI-H522
NCI/ADR-RES = tested on: NCI/ADR-RES
OVCAR-3 = tested on: OVCAR-3
OVCAR-4 = tested on: OVCAR-4
OVCAR-5 = tested on: OVCAR-5
OVCAR-8 = tested on: OVCAR-8
PC-3 = tested on: PC-3
RPMI-8226 = tested on: RPMI-8226
RXF 393 = tested on: RXF 393
SF-268 = tested on: SF-268
SF-295 = tested on: SF-295
SF-539 = tested on: SF-539
SK-MEL-28 = tested on: SK-MEL-28
SK-MEL-2 = tested on: SK-MEL-2
SK-MEL-5 = tested on: SK-MEL-5
SK-OV-3 = tested on: SK-OV-3
SN12C = tested on: SN12C
SNB-19 = tested on: SNB-19
SNB-75 = tested on: SNB-75
SW-620 = tested on: SW-620
T47D = tested on: T47D
TK-10 = tested on: TK-10
U-251 = tested on: U-251
UACC-257 = tested on: UACC-257
UACC-62 = tested on: UACC-62
UO-31 = tested on: UO-31
Hs-578T = tested on: Hs-578T
SR = tested on: SR

In the case of `C=C(C)[C@H]1CC(=O)[C@@]2(C)C[C@H]3O[C@]3(C)CC/C=C(\C)CC[C@H]12`, the GI50 (786-0) is reported as 62.8 µM (inactive), the GI50 (A498) is reported as 36.1 µM (inactive) and the GI50 (A549) is reported as 58.1 µM (inactive). The GI50 (ACHN) was 42.9 µM (inactive), the GI50 (CAKI-1) was 28.2 µM (inactive) and the GI50 (CCRF-CEM) was 32.7 µM (inactive). For the same molecule, the GI50 (COLO 205) was 20.8 µM (inactive), the GI50 (DU-145) was 99.5 µM (inactive) and the GI50 (EKVX) was 40.5 µM (inactive). The GI50 (HCC 2998) was > 100 µM (inactive), the GI50 (HCT-116) was 33.9 µM (inactive) and the GI50 (HCT-15) was 47.2 µM. For the same molecule, the GI50 (HL-60) was 21.6 µM (inactive), the GI50 (HOP-62) was 74.1 µM (inactive) and the GI50 (HOP-92) was 64.1 µM (inactive). For the same molecule, the GI50 (HT-29) was 34.1 µM (inactive), the GI50 (IGROV-1) was 73.1 µM (inactive) and the GI50 (K562) was 18 µM (inactive). The GI50 (KM12) was 16 µM (inactive), the GI50 (LOX IMVI) was 57.5 µM (inactive) and the GI50 (M14) was > 10 µM (inactive). The GI50 (MCF7) was 24.8 µM (inactive), the GI50 (MDA-MB-231) was 84.1 µM (inactive) and the GI50 (MDA-MB-435) was 43.8 µM (inactive). The GI50 (MDA-N) was 49 µM (inactive), the GI50 (MOLT-4) was 24 µM (inactive) and the GI50 (Malme-3M) was 44.6 µM (inactive). The GI50 (NCI-H226) was 31.7 µM (inactive), the GI50 (NCI-H23) was 34.4 µM (inactive) and the GI50 (NCI-H460) was 45.7 µM (inactive). For the same molecule, the GI50 (NCI-H522) was 37.1 µM (inactive), the GI50 (NCI/ADR-RES) was 35.4 µM (inactive) and the GI50 (OVCAR-3) was 29.9 µM (inactive). The GI50 (OVCAR-4) was 42.1 µM (inactive), the GI50 (OVCAR-5) was 86.9 µM (inactive) and the GI50 (OVCAR-8) was 98.4 µM (inactive). The GI50 (PC-3) was 34.7 µM (inactive), the GI50 (RPMI-8226) was 33.4 µM (inactive) and the GI50 (RXF 393) was 33.8 µM (inactive). For the same molecule, the GI50 (SF-268) was 77.3 µM (inactive), the GI50 (SF-295) was > 100 µM (inactive) and the GI50 (SF-539) was 42 µM (inactive). The GI50 (SK-MEL-28) was 50.4 µM (inactive), the GI50 (SK-MEL-2) was 45.1 µM (inactive) and the GI50 (SK-MEL-5) was 32.2 µM (inactive). For the same molecule, the GI50 (SK-OV-3) was 63.2 µM (inactive), the GI50 (SN12C) was 23.6 µM (inactive) and the GI50 (SNB-19) was 70 µM (inactive). The GI50 (SNB-75) was 58.3 µM (inactive), the GI50 (SW-620) was 42.3 µM (inactive) and the GI50 (T47D) was 38.4 µM (inactive). For the same molecule, the GI50 (TK-10) was 22.2 µM (inactive), the GI50 (U-251) was 51.9 µM (inactive) and the GI50 (UACC-257) was 19.4 µM (inactive). The GI50 (UACC-62) was 28.1 µM (inactive) and the GI50 (UO-31) was 57.1 µM (inactive).
In the case of `Cc1ccc(NC(=O)CSC(N)=O)cc1C`, the GI50 (786-0) is reported as 48.2 µM (inactive), the GI50 (A498) is reported as 98.4 µM (inactive) and the GI50 (A549) is reported as > 100 µM (inactive). The GI50 (ACHN) was > 100 µM (inactive), the GI50 (CAKI-1) was > 100 µM (inactive) and the GI50 (CCRF-CEM) was > 100 µM (inactive). For the same molecule, the GI50 (COLO 205) was > 100 µM (inactive), the GI50 (DU-145) was > 100 µM (inactive) and the GI50 (EKVX) was > 100 µM (inactive). For the same molecule, the GI50 (HCC 2998) was > 100 µM (inactive), the GI50 (HCT-116) was > 100 µM (inactive) and the GI50 (HCT-15) was greater than 100 µM. For the same molecule, the GI50 (HL-60) was > 100 µM (inactive), the GI50 (HOP-62) was > 100 µM (inactive) and the GI50 (HOP-92) was > 100 µM (inactive). The GI50 (HT-29) was > 100 µM (inactive), the GI50 (Hs-578T) was > 100 µM (inactive) and the GI50 (IGROV-1) was > 100 µM (inactive). The GI50 (K562) was > 100 µM (inactive), the GI50 (KM12) was > 100 µM (inactive) and the GI50 (LOX IMVI) was 37.9 µM (inactive). For the same molecule, the GI50 (M14) was 40.8 µM (inactive), the GI50 (MCF7) was 31 µM (inactive) and the GI50 (MDA-MB-231) was > 100 µM (inactive). The GI50 (MDA-MB-435) was > 100 µM (inactive), the GI50 (MOLT-4) was 30.8 µM (inactive) and the GI50 (Malme-3M) was > 100 µM (inactive). The GI50 (NCI-H226) was > 100 µM (inactive), the GI50 (NCI-H23) was > 100 µM (inactive) and the GI50 (NCI-H460) was > 100 µM (inactive). The GI50 (NCI-H522) was 89.9 µM (inactive), the GI50 (NCI/ADR-RES) was > 100 µM (inactive) and the GI50 (OVCAR-3) was > 100 µM (inactive). For the same molecule, the GI50 (OVCAR-4) was > 100 µM (inactive), the GI50 (OVCAR-5) was > 100 µM (inactive) and the GI50 (OVCAR-8) was > 100 µM (inactive). For the same molecule, the GI50 (PC-3) was > 100 µM (inactive), the GI50 (RPMI-8226) was 29.3 µM (inactive) and the GI50 (RXF 393) was > 100 µM (inactive). For the same molecule, the GI50 (SF-268) was > 100 µM (inactive), the GI50 (SF-295) was > 100 µM (inactive) and the GI50 (SF-539) was 43.4 µM (inactive). The GI50 (SK-MEL-28) was > 100 µM (inactive), the GI50 (SK-MEL-2) was > 100 µM (inactive) and the GI50 (SK-MEL-5) was > 100 µM (inactive). The GI50 (SN12C) was > 100 µM (inactive), the GI50 (SNB-19) was > 100 µM (inactive) and the GI50 (SNB-75) was > 100 µM (inactive). For the same molecule, the GI50 (SR) was 34.7 µM (inactive), the GI50 (SW-620) was > 100 µM (inactive) and the GI50 (T47D) was > 100 µM (inactive). For the same molecule, the GI50 (TK-10) was > 100 µM (inactive), the GI50 (U-251) was > 100 µM (inactive) and the GI50 (UACC-257) was > 100 µM (inactive). The GI50 (UACC-62) was 93.8 µM (inactive) and the GI50 (UO-31) was > 100 µM (inactive).

Reference: ChEMBL document CHEMBL1201862, “PubChem BioAssay data set” (2004)
